These results are taken from patent US20230310624A1, “AFFIBODY-CYTOTOXIN CONJUGATE FOR ACTIVE TARGETED THERAPY OF TUMORS, NANOPARTICLE THEREOF, PREPARATION METHOD THEREOF AND APPLICATION THEREOF” (priority 2020, published 2023).

Where a SMILES comes first, the peptide text is derived from it. [ ]: non-standard residue; d: D form. The star is where a group is joined. Dolaproine = CO[C@@H]([C@@H]1CCCN1)[C@@H](C)C(=O)O; Dil = CC[C@H](C)[C@H](NC)[C@@H](CC(=O)O)OC; X1 = C[C@@H](N*)[C@@H](O)c1ccccc1; NMeV = CN[C@H](C(=O)O)C(C)C

For series [1] the following is noted: in rats; cited from earlier work.
For series [2], the system named is SKOV-3 tumor. Briefly: long-term cycle imaging in SKOV-3 tumor-bearing nude mice. The series is classed as in vivo. On the procedure: A cell suspension of SKOV-3 cells in logarithmic growth phase is prepared at a concentration of 4.0×10^6 cells/mL, and inoculated subcutaneously into the right anterior axillary of nude mice, 200 μL per mouse; when the volume of tumor is around 500 mm^3, two mice are randomly selected as a control group and an experimental group. […] After 4 h and 12 h of injection, ZKKS-Mulaurora imaging system is used to take pictures and analyze the fluorescence intensity of the whole body of the mice.

Series [3] relates to SKOV-3 tumor. Description: therapeutic effects on tumors of SKOV-3 tumor-bearing nude mice. The series is classed as in vivo. The protocol: A cell suspension of SKOV-3 cells in logarithmic growth phase is prepared at a concentration of 4.0><10^6 cells/mL, and inoculated subcutaneously into the right anterior axillary of nude mice, 200 μL per mouse; when the volume of tumor is around 100 mm^3, the mice are randomly selected into 4 groups, 5 in each group, which are respectively a PBS control group, a MMAE 0.6 mg/kg group, a ZHER2:342-MMAE nanoparticle group (the content of MMAE is 0.4 mg/kg), and a ZHER2:342-MMAE nanoparticle group (the content of MMAE is 0.6 mg/kg), wherein 200 μl PBS is injected for the PBS group, 0.6 mg/kg of MMAE is injected for the MMAE 0.6 mg/kg group, ZHER2:342-MMAE (containing 0.4 mg/kg MMAE) is injected for the ZHER2:342-MMAE group (containing 0.4 mg/kg MMAE), and ZHER2:342-MMAE (the content of MMAE is 0.6 mg/kg) is injected for the ZHER2:342-MMAE group (the content of MMAE is 0.6 mg/kg), once every 3 days. After each administration, the survival of tumor-bearing nude mice is observed, and the body weight and tumor size of the mice are measured and photographed for preservation.

As to `CC(=O)O[C@H]1C(=O)[C@@]2(C)[C@H]([C@H](OC(=O)c3ccccc3)[C@]3(O)C[C@H](OC(=O)[C@H](O)[C@@H](NC(=O)c4ccccc4)c4ccccc4)C(C)=C1C3(C)C)[C@]1(OC(C)=O)CO[C@@H]1C[C@@H]2O` [paclitaxel], in series [1], the blood half-life period was 1.1 h.

On to cyanine dye 5.5 [Cy5.5], for which the figures for the whole-body fluorescence distribution entry in series [2] (after 4 hours of injection) and in series [2] (after 12 hours) were “no obvious presence in the mouse body” and “basically completely metabolized”, respectively.

As for `CC[C@H](C)[C@@H]([C@@H](CC(=O)N1CCC[C@H]1[C@H](OC)[C@@H](C)C(=O)N[C@H](C)[C@@H](O)c1ccccc1)OC)N(C)C(=O)[C@@H](NC(=O)[C@@H](NC)C(C)C)C(C)C` [MMAE, monomethyl auristatin E] (H-[NMeV]V[Dil][Dolaproine]-X1), in series [3] (MMAE 0.6 mg/kg, after administration), the “body weight of the mice” value is listed as “drops sharply”. Moreover, in series [3] (MMAE (content) 0.6 mg/kg, once every 3 days), the “survival of tumor-bearing nude mice” value is “all died”.
